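All cell lines were grown in 96-well plates and treated with compound for 48 hours. GI50 = concentration required for 50% inhibition of growth. Definition used: TGI = concentration required for complete inhibition of growth.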
How the values were obtained:
Assay in all cases: NCI-60 cell line screen, 48 h
TK-10 renal = system: TK-10 renal
OVCAR-8 ovarian = system: OVCAR-8 ovarian
SF-268 CNS = system: SF-268 CNS
LOX IMVI melanoma = system: LOX IMVI melanoma
SNB-75 CNS = system: SNB-75 CNS
SNB-19 CNS = system: SNB-19 CNS
EKVX NSCLC = system: EKVX NSCLC
HCC-2998 colon = system: HCC-2998 colon
NCI/ADR-RES ovarian = system: NCI/ADR-RES ovarian
OVCAR-4 ovarian = system: OVCAR-4 ovarian
CCRF-CEM leukemia = system: CCRF-CEM leukemia
NCI-H522 lung = system: NCI-H522 lung
MALME-3M melanoma = system: MALME-3M melanoma
SW-620 colon = system: SW-620 colon
HOP-62 NSCLC = system: HOP-62 NSCLC
OVCAR-5 ovarian = system: OVCAR-5 ovarian
HOP-92 NSCLC = system: HOP-92 NSCLC
KM12 colon = system: KM12 colon
MDA-MB-468 breast = system: MDA-MB-468 breast
IGROV1 ovarian = system: IGROV1 ovarian
HCT-116 colon = system: HCT-116 colon
A549 NSCLC = system: A549 NSCLC
NCI-H23 lung = system: NCI-H23 lung
SR leukemia = system: SR leukemia
HL-60(TB) leukemia = system: HL-60(TB) leukemia
HS 578T breast = system: HS 578T breast
SF-295 CNS = system: SF-295 CNS
MOLT-4 leukemia = system: MOLT-4 leukemia
NCI-H226 lung = system: NCI-H226 lung
786-0 renal = system: 786-0 renal
OVCAR-3 ovarian = system: OVCAR-3 ovarian
K-562 leukemia = system: K-562 leukemia
A498 renal = system: A498 renal
HT29 colon = system: HT29 colon
BT-549 breast = system: BT-549 breast
CAKI-1 renal = system: CAKI-1 renal
SN12C renal = system: SN12C renal
T-47D breast = system: T-47D breast
ACHN renal = system: ACHN renal
MCF7 breast = system: MCF7 breast
PC-3 prostate = system: PC-3 prostate
SF-539 CNS = system: SF-539 CNS
M14 melanoma = system: M14 melanoma
DU-145 prostate = system: DU-145 prostate
SK-MEL-28 melanoma = system: SK-MEL-28 melanoma
HCT-15 colon = system: HCT-15 colon
RXF 393 renal = system: RXF 393 renal
SK-MEL-2 melanoma = system: SK-MEL-2 melanoma
SK-MEL-5 melanoma = system: SK-MEL-5 melanoma
UACC-62 melanoma = system: UACC-62 melanoma
U251 CNS = system: U251 CNS
UO-31 renal = system: UO-31 renal
SK-OV-3 ovarian = system: SK-OV-3 ovarian
MDA-MB-435 = system: MDA-MB-435
NCI-H460 lung = system: NCI-H460 lung
COLO 205 colon = system: COLO 205 colon
UACC-257 melanoma = system: UACC-257 melanoma
MDA-MB-231 breast = system: MDA-MB-231 breast
RPMI-8226 leukemia = system: RPMI-8226 leukemia

How did the GI50 (TK-10 renal) turn out when `Cc1ccc(C(=O)C[n+]2cccc3c4ccccc4ccc32)cc1` was run?
Its GI50 is 26.4 µM.

And the TGI (TK-10 renal)?
The TGI was > 100 µM.

And the GI50 (OVCAR-8 ovarian)?
Its GI50 is 6.97 µM.

What about the TGI (OVCAR-8 ovarian) of the same compound?
Its TGI is > 100 µM.

And the GI50 (SF-268 CNS)?
The GI50 was 17.2 µM.

And the TGI (SF-268 CNS)?
The TGI was > 100 µM.

What about the GI50 (LOX IMVI melanoma) of the same compound?
The GI50 was 11.2 µM.

And the TGI (LOX IMVI melanoma)?
The TGI was 24.1 µM.

What about the GI50 (SNB-75 CNS) of the same compound?
Its GI50 is 8.73 µM.

And the TGI (SNB-75 CNS)?
Its TGI is 61.9 µM.

What about the GI50 (SNB-19 CNS) of the same compound?
The GI50 was 18.5 µM.

What about the TGI (SNB-19 CNS) of the same compound?
Its TGI is > 100 µM.

What about the GI50 (EKVX NSCLC) of the same compound?
The GI50 was 7.26 µM.

And the TGI (EKVX NSCLC)?
The TGI was > 100 µM.

And the GI50 (HCC-2998 colon)?
Its GI50 is 13.6 µM.

What about the TGI (HCC-2998 colon) of the same compound?
Its TGI is 28.3 µM.

What about the GI50 (NCI/ADR-RES ovarian) of the same compound?
The GI50 was > 100 µM.

What about the TGI (NCI/ADR-RES ovarian) of the same compound?
Its TGI is > 100 µM.

And the GI50 (OVCAR-4 ovarian)?
The GI50 was 4.43 µM.

And the TGI (OVCAR-4 ovarian)?
Its TGI is > 100 µM.

What about the GI50 (CCRF-CEM leukemia) of the same compound?
Its GI50 is 13.1 µM.

And the TGI (CCRF-CEM leukemia)?
Its TGI is 70 µM.

And the GI50 (NCI-H522 lung)?
Its GI50 is 6.66 µM.

What about the TGI (NCI-H522 lung) of the same compound?
The TGI was 24.6 µM.

And the GI50 (MALME-3M melanoma)?
The GI50 was 13.9 µM.

And the TGI (MALME-3M melanoma)?
The TGI was 27.4 µM.

What about the GI50 (SW-620 colon) of the same compound?
The GI50 was 13.4 µM.

And the TGI (SW-620 colon)?
The TGI was 87.1 µM.

What about the GI50 (HOP-62 NSCLC) of the same compound?
Its GI50 is 11.8 µM.

And the TGI (HOP-62 NSCLC)?
Its TGI is > 100 µM.

And the GI50 (OVCAR-5 ovarian)?
Its GI50 is 20.4 µM.

What about the TGI (OVCAR-5 ovarian) of the same compound?
Its TGI is > 100 µM.

And the GI50 (HOP-92 NSCLC)?
Its GI50 is 6.11 µM.

What about the TGI (HOP-92 NSCLC) of the same compound?
Its TGI is 40.8 µM.

And the GI50 (KM12 colon)?
The GI50 was 16 µM.

And the TGI (KM12 colon)?
The TGI was 65 µM.

What about the GI50 (MDA-MB-468 breast) of the same compound?
Its GI50 is 1.61 µM.

What about the TGI (MDA-MB-468 breast) of the same compound?
The TGI was 7.72 µM.

What about the GI50 (IGROV1 ovarian) of the same compound?
Its GI50 is 19.1 µM.

And the TGI (IGROV1 ovarian)?
Its TGI is 82.5 µM.

And the GI50 (HCT-116 colon)?
The GI50 was 6.64 µM.

And the TGI (HCT-116 colon)?
Its TGI is 28.6 µM.

And the GI50 (A549 NSCLC)?
The GI50 was 11 µM.

What about the TGI (A549 NSCLC) of the same compound?
The TGI was > 100 µM.

And the GI50 (NCI-H23 lung)?
The GI50 was 10.6 µM.

What about the TGI (NCI-H23 lung) of the same compound?
The TGI was 49 µM.

And the GI50 (SR leukemia)?
Its GI50 is 29.7 µM.

What about the TGI (SR leukemia) of the same compound?
Its TGI is > 100 µM.

What about the GI50 (HL-60(TB) leukemia) of the same compound?
The GI50 was 3.75 µM.

And the TGI (HL-60(TB) leukemia)?
The TGI was 21.1 µM.

What about the GI50 (HS 578T breast) of the same compound?
The GI50 was 15.8 µM.

And the TGI (HS 578T breast)?
Its TGI is 83.4 µM.

And the GI50 (SF-295 CNS)?
Its GI50 is 7.05 µM.

What about the TGI (SF-295 CNS) of the same compound?
Its TGI is 29.1 µM.

What about the GI50 (MOLT-4 leukemia) of the same compound?
The GI50 was 13.2 µM.

What about the TGI (MOLT-4 leukemia) of the same compound?
The TGI was 83.9 µM.

What about the GI50 (NCI-H226 lung) of the same compound?
The GI50 was 5.18 µM.

What about the TGI (NCI-H226 lung) of the same compound?
The TGI was 42.9 µM.

What about the GI50 (786-0 renal) of the same compound?
Its GI50 is 18.6 µM.

What about the TGI (786-0 renal) of the same compound?
Its TGI is 48.3 µM.

What about the GI50 (OVCAR-3 ovarian) of the same compound?
The GI50 was 6.1 µM.

And the TGI (OVCAR-3 ovarian)?
Its TGI is 52.3 µM.

What about the GI50 (K-562 leukemia) of the same compound?
Its GI50 is 2.45 µM.

What about the TGI (K-562 leukemia) of the same compound?
The TGI was > 100 µM.

What about the GI50 (A498 renal) of the same compound?
Its GI50 is 24.1 µM.

What about the TGI (A498 renal) of the same compound?
The TGI was > 100 µM.

And the GI50 (HT29 colon)?
The GI50 was 5.6 µM.

And the TGI (HT29 colon)?
The TGI was 48.4 µM.

What about the GI50 (BT-549 breast) of the same compound?
Its GI50 is 5.68 µM.

What about the TGI (BT-549 breast) of the same compound?
Its TGI is 18.9 µM.

And the GI50 (CAKI-1 renal)?
Its GI50 is 15.6 µM.

And the TGI (CAKI-1 renal)?
The TGI was 71.1 µM.

And the GI50 (SN12C renal)?
Its GI50 is 12.5 µM.

What about the TGI (SN12C renal) of the same compound?
Its TGI is > 100 µM.

What about the GI50 (T-47D breast) of the same compound?
Its GI50 is 6.57 µM.

What about the TGI (T-47D breast) of the same compound?
The TGI was 46.2 µM.

And the GI50 (ACHN renal)?
Its GI50 is 15.9 µM.

And the TGI (ACHN renal)?
The TGI was > 100 µM.

What about the GI50 (MCF7 breast) of the same compound?
The GI50 was 5.44 µM.

What about the TGI (MCF7 breast) of the same compound?
Its TGI is 24.4 µM.

And the GI50 (PC-3 prostate)?
The GI50 was 5.53 µM.

And the TGI (PC-3 prostate)?
The TGI was 59.4 µM.

And the GI50 (SF-539 CNS)?
Its GI50 is 16.9 µM.

What about the TGI (SF-539 CNS) of the same compound?
Its TGI is 58.7 µM.

And the GI50 (M14 melanoma)?
The GI50 was 11.1 µM.

And the TGI (M14 melanoma)?
The TGI was 29.2 µM.

And the GI50 (DU-145 prostate)?
Its GI50 is 18.5 µM.

And the TGI (DU-145 prostate)?
The TGI was > 100 µM.

And the GI50 (SK-MEL-28 melanoma)?
The GI50 was 14.8 µM.

What about the TGI (SK-MEL-28 melanoma) of the same compound?
Its TGI is 32.6 µM.

What about the GI50 (HCT-15 colon) of the same compound?
Its GI50 is 28.1 µM.

And the TGI (HCT-15 colon)?
Its TGI is > 100 µM.

And the GI50 (RXF 393 renal)?
Its GI50 is 3.82 µM.

And the TGI (RXF 393 renal)?
Its TGI is 21.6 µM.

What about the GI50 (SK-MEL-2 melanoma) of the same compound?
Its GI50 is 14.5 µM.

What about the TGI (SK-MEL-2 melanoma) of the same compound?
Its TGI is 52.5 µM.

What about the GI50 (SK-MEL-5 melanoma) of the same compound?
Its GI50 is 3.73 µM.

What about the TGI (SK-MEL-5 melanoma) of the same compound?
Its TGI is 14.8 µM.

What about the GI50 (UACC-62 melanoma) of the same compound?
Its GI50 is 12.6 µM.

And the TGI (UACC-62 melanoma)?
The TGI was 26.5 µM.

What about the GI50 (U251 CNS) of the same compound?
The GI50 was 9.32 µM.

What about the TGI (U251 CNS) of the same compound?
Its TGI is 34.8 µM.

What about the GI50 (UO-31 renal) of the same compound?
The GI50 was 19.9 µM.

What about the TGI (UO-31 renal) of the same compound?
Its TGI is > 100 µM.

And the GI50 (SK-OV-3 ovarian)?
The GI50 was 22.1 µM.

And the TGI (SK-OV-3 ovarian)?
The TGI was > 100 µM.

And the GI50 (MDA-MB-435)?
Its GI50 is 14.2 µM.

What about the TGI (MDA-MB-435) of the same compound?
Its TGI is 29.8 µM.

What about the GI50 (NCI-H460 lung) of the same compound?
The GI50 was 10.5 µM.

And the TGI (NCI-H460 lung)?
Its TGI is 25.8 µM.

What about the GI50 (COLO 205 colon) of the same compound?
Its GI50 is 9.03 µM.

What about the TGI (COLO 205 colon) of the same compound?
Its TGI is 25.5 µM.

What about the GI50 (UACC-257 melanoma) of the same compound?
The GI50 was 10.3 µM.

And the TGI (UACC-257 melanoma)?
Its TGI is 25.7 µM.

What about the GI50 (MDA-MB-231 breast) of the same compound?
The GI50 was 14.4 µM.

What about the TGI (MDA-MB-231 breast) of the same compound?
Its TGI is 40.8 µM.

What about the GI50 (RPMI-8226 leukemia) of the same compound?
Its GI50 is 3.87 µM.

What about the TGI (RPMI-8226 leukemia) of the same compound?
The TGI was 21.9 µM.

Reference: PubChem BioAssay (NCI)
